The values below come from ChEMBL document CHEMBL1201862, “PubChem BioAssay data set” (2004).

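Results reflect a 48-hour exposure of cells in 96-well plates to compound at five concentrations. Here, GI50 denotes the concentration required for 50% inhibition of growth.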 Activity calls are given as the source filed them. Cut-off read from the data, not from the text of the source: active = GI50 up to about 1.1 µM and inactive = higher. Where only a bound is given, the exact number is not on record here.

Test in all cases: inhibition of tumour cell growth, NCI panel, 48 h
Experiment [1] deals with HT-29.
Experiment [2] deals with NCI/ADR-RES.
Experiment [3] has as its system HOP-92.
In experiment [4] the test system is SNB-19.
The test system of experiment [5] is OVCAR-8.
For experiment [6], the system named is OVCAR-4.
For experiment [7], the system named is MOLT-4.
For experiment [8], the system named is UACC-257.
Experiment [9] has as its system SK-MEL-2.
Experiment [10] concerns 786-0.
The test system of experiment [11] is NCI-H23.
In experiment [12] the test system is TK-10.
The subject of experiment [13] is EKVX.
The subject of experiment [14] is MDA-N.
The test system of experiment [15] is BT-549.
Experiment [16] has as its system SNB-75.
Experiment [17] concerns RPMI-8226.
In experiment [18] the test system is OVCAR-3.
Experiment [19] deals with SW-620.
Experiment [20] has as its system A549.

As for `Cc1cc(=O)oc2cc(OC(=O)N(CCCl)CCCl)ccc12`, the GI50 in experiment [1] was > 100 µM (inactive); in experiment [2], 99.1 µM (inactive); in experiment [3], 18.2 µM (inactive); in [4], > 100 µM (inactive); in experiment [5] it was > 100 µM (inactive); in experiment [6] it was > 100 µM (inactive). The GI50 is 82.6 µM (inactive) in [7]; > 100 µM (inactive) in [8]; > 100 µM (inactive) in experiment [9]; > 100 µM (inactive) in [10]; > 100 µM (inactive) in experiment [11]; > 100 µM (inactive) in experiment [12]. Further, the GI50 in [13] was > 100 µM (inactive); in experiment [14], > 100 µM (inactive); in experiment [15], 44.7 µM (inactive); in experiment [16], 50.7 µM (inactive); in experiment [17] it was 61.4 µM (inactive); in experiment [18], > 100 µM (inactive). In addition, the GI50 in experiment [19] and in experiment [20] was > 100 µM (inactive) throughout.

For `C[C@H](CCc1nc(C#N)c(N)o1)[C@H]1CC[C@H]2[C@@H]3[C@@H](O)CC4C[C@@H](O)CC[C@]4(C)[C@H]3C[C@@H](O)[C@]12C` (stereo not given in full), the GI50 in experiment [1] is 20.2 µM (inactive); in experiment [2], > 78.9 µM (inactive); in experiment [3], 22.2 µM (inactive); in experiment [4], 23.9 µM (inactive); in experiment [5], 12.9 µM (inactive); in experiment [6] it was 1.99 µM (inactive). For the same molecule, the GI50 is 15 µM (inactive) in experiment [7]; 19.7 µM (inactive) in experiment [8]; 19.9 µM (inactive) in experiment [9]; 19.2 µM (inactive) in [10]; 24 µM (inactive) in experiment [11]; 24.2 µM (inactive) in experiment [12]. The GI50 in experiment [13] was 28.3 µM (inactive); in experiment [14] it was 25.9 µM (inactive); in experiment [15], 9.86 µM (inactive); in experiment [16], 10.3 µM (inactive); in experiment [17], 6.75 µM (inactive); in [18], 17.7 µM (inactive). In addition, the GI50 in [19] was 23.5 µM (inactive); in [20] it was 29.4 µM (inactive).

As to `COc1cc(-c2oc(/C=N/c3ccccc3)c([N+](=O)[O-])c2-c2ccc(O)c(OC)c2)ccc1O`, the GI50 in experiment [1] is 17.1 µM (inactive); in experiment [2], 22.8 µM (inactive); in experiment [3], 13.8 µM (inactive); in experiment [4], 22.4 µM (inactive); in experiment [5], 17.3 µM (inactive); in [6], 19.1 µM (inactive). Further, the GI50 was 12.2 µM (inactive) in experiment [7]; 27 µM (inactive) in [8]; 32.9 µM (inactive) in [9]; 20.6 µM (inactive) in experiment [10]; 16.3 µM (inactive) in [11]; 18 µM (inactive) in experiment [12]. For the same molecule, the GI50 in experiment [13] is 25.8 µM (inactive); in [14], 31 µM (inactive); in experiment [15] it was 29.6 µM (inactive); in experiment [16] it was 11.5 µM (inactive); in experiment [17], 25.1 µM (inactive); in experiment [18], 35.4 µM (inactive). Also, the GI50 in experiment [19] was 22.9 µM (inactive); in [20] it was 39.2 µM (inactive).

Consider `O=c1oc2ccccc2cc1-c1cc2ccccn2c1`, for which the GI50 in [1], in experiment [2], in experiment [3], in experiment [4], in experiment [5] and in [6] was > 100 µM (inactive) in each case. For the same molecule, the GI50 in [7], in [8], in experiment [9], in [10], in experiment [11] and in [12] was > 100 µM (inactive) each time. Besides, the GI50 in experiment [13], in [14], in experiment [15], in experiment [16], in experiment [17] and in experiment [18] was > 100 µM (inactive) each time. For the same molecule, the GI50 in [19] and in experiment [20] was > 100 µM (inactive) throughout.

For the molecule `CNCCCNc1c2ccccc2nc2cccc([N+](=O)[O-])c12`, the GI50 is 0.00337 µM (active) in experiment [1]; 0.00861 µM (active) in experiment [2]; 0.00183 µM (active) in experiment [3]; 0.00769 µM (active) in [4]; 0.00372 µM (active) in [5]; 0.00174 µM (active) in experiment [6]. The GI50 in [7] was 0.00243 µM (active); in [8], 0.0189 µM (active); in [9] it was 0.00332 µM (active); in experiment [10], 0.00323 µM (active); in experiment [11], 0.00193 µM (active); in experiment [12] it was 0.00675 µM (active). In addition, the GI50 is 0.00809 µM (active) in [13]; 0.0016 µM (active) in experiment [14]; 0.0023 µM (active) in experiment [15]; 0.00438 µM (active) in [16]; 0.00348 µM (active) in experiment [17]; 0.00449 µM (active) in experiment [18]. Moreover, the GI50 in [19] was 0.00321 µM (active); in [20], 0.00187 µM (active).

On to `CC(Br)C(=O)Nc1ccc(C(=O)O)c(O)c1` (stereo not given), for which the GI50 is 62.4 µM (inactive) in experiment [1]; 49.5 µM (inactive) in experiment [2]; 65.6 µM (inactive) in [3]; 37.2 µM (inactive) in experiment [4]; 52.8 µM (inactive) in [5]; 45.4 µM (inactive) in [6]. In addition, the GI50 in experiment [7] was 36.1 µM (inactive); in [8] it was 42.4 µM (inactive); in experiment [9], 32.4 µM (inactive); in experiment [10] it was 37.6 µM (inactive); in experiment [11], 27.4 µM (inactive); in experiment [12] it was 52.4 µM (inactive). The GI50 in [13] was > 100 µM (inactive); in [14], 34.6 µM (inactive); in experiment [15], 37.2 µM (inactive); in [16], 43.5 µM (inactive); in [17], > 100 µM (inactive); in [18], 29.2 µM (inactive). Further, the GI50 was 60.8 µM (inactive) in [19] and > 100 µM (inactive) in experiment [20].

Regarding `CC(O)C1(CNc2cc(Cl)nc(N)n2)CC(CCc2ccccc2)C1` (stereo not given), the GI50 in [1] was 13 µM (inactive); in experiment [2], 4.1 µM (inactive); in [3], 12.2 µM (inactive); in [4] it was 15.8 µM (inactive); in [5], 14.5 µM (inactive); in experiment [6] it was 10.2 µM (inactive). Also, the GI50 in experiment [7] was 11.6 µM (inactive); in experiment [8], 4.56 µM (inactive); in experiment [9], 17.2 µM (inactive); in experiment [10], 18.2 µM (inactive); in [11], 3.06 µM (inactive); in [12], 16.1 µM (inactive). In addition, the GI50 in [13] is 10.2 µM (inactive); in [14], 12.9 µM (inactive); in [15], 15.9 µM (inactive); in [16], 15.5 µM (inactive); in experiment [17], 11.6 µM (inactive); in experiment [18], 16.1 µM (inactive). Also, the results for the GI50 in experiment [19] and in experiment [20] were 15.8 µM (inactive) and 10.6 µM (inactive), respectively.

Turning to `O=C(O)CSCC(=O)Nc1ccc2cccc3c2c1CC3`, the GI50 in experiment [1], in experiment [2], in experiment [3], in experiment [4], in experiment [5] and in experiment [6] was > 100 µM (inactive) in each case. Besides, the GI50 in experiment [7], in experiment [8], in [9], in [10], in [11] and in experiment [12] was > 100 µM (inactive) in each case. The GI50 in [13], in experiment [14], in experiment [15], in experiment [16], in experiment [17] and in experiment [18] was > 100 µM (inactive) each time. The GI50 in [19] and in experiment [20] was > 100 µM (inactive) throughout.

Take `OC(CC1CCCCN1)c1ccc2c(c1)oc1ccccc12` (stereo not given): the GI50 in [1] is 28.2 µM (inactive); in experiment [2], > 100 µM (inactive); in experiment [3] it was 48.3 µM (inactive); in [4] it was > 100 µM (inactive); in experiment [5], 84.1 µM (inactive); in [6], 94.2 µM (inactive). Also, the GI50 in experiment [7] is 28.2 µM (inactive); in experiment [8], 31 µM (inactive); in [9], 34 µM (inactive); in [10], > 100 µM (inactive); in experiment [11] it was > 100 µM (inactive); in experiment [12] it was 72.1 µM (inactive). The GI50 in [13] is 49 µM (inactive); in experiment [14], 40.8 µM (inactive); in [15], > 100 µM (inactive); in experiment [16] it was 39.6 µM (inactive); in experiment [17] it was 46.1 µM (inactive); in experiment [18], > 100 µM (inactive). The GI50 in experiment [19] and in [20] was > 100 µM (inactive) throughout.

In the case of `CN(C)c1ccc(/C=C/C(=O)c2cc(C(C)(C)C)c(O)c(C(C)(C)C)c2)cc1`, the GI50 in experiment [1] was 1.03 µM (active); in experiment [2], 0.796 µM (active); in experiment [3] it was > 100 µM (inactive); in experiment [4], 3.73 µM (inactive); in [5], 2.93 µM (inactive); in experiment [6], 1.98 µM (inactive). The GI50 was 3.85 µM (inactive) in experiment [7]; 0.321 µM (active) in experiment [8]; 1.08 µM (active) in experiment [9]; 1.3 µM (inactive) in [10]; 2.07 µM (inactive) in [11]; 1.23 µM (inactive) in [12]. Further, the GI50 in [13] is 0.583 µM (active); in experiment [14] it was 0.249 µM (active); in experiment [15], 3.64 µM (inactive); in [16], 0.579 µM (active); in [17] it was 1.55 µM (inactive); in experiment [18] it was 0.443 µM (active). For the same molecule, the GI50 in [19] is 0.986 µM (active); in experiment [20], 2.32 µM (inactive).
